{"source": "patent US20200399148A1", "about": "“METHOD AND APPARATUS FOR ELECTROCHEMICAL pH CONTROL” (BAR-ILAN UNIVERSITY, priority 2018, published 2020)", "origin": "cited, not measured here", "system": "bacteria", "conditions": "relative to hypochlorous acid", "data": [{"smiles": "OCl", "note": "[OCl^−, hypochlorite anion]", "values": [{"measurement": "bactericidal activity, times less than hypochlorous acid", "value": "80-120 time less"}]}]}
